Reference: US8524718B2, “Heteroaromatic derivatives and their use as positive allosteric modulators of metabotropic glutamate receptors” (Addex Pharma S.A., priority 2007, dated 2013)

What was measured:
[1] = biological target: T1, recombinant human mGluR4a receptors (Homo sapiens, UniProt Q14833); experiment: mGluR4 assay on HEK-expressing human mGluR4 (fluorescent cell based Ca2+ mobilization assay, FLIPR); conditions: HEK-293 cells expressing hmGluR4; enhancement of EC25 glutamate response; mean of at least three independent experiments in duplicate; read-out: Ca^2+ Flux (mean EC50)
T1 construct: expressed in transfected cells
From the text: mGluR4 Assay on HEK-Expressing Human mGluR4 The compounds of the present invention are positive allosteric modulators of mGluR4 receptor. Their activity was examined on recombinant human mGluR4a receptors by detecting changes in intracellular Ca^2+ concentration, using the fluorescent Ca^2+-sensitive dye Fluo-4-(AM) and a Fluorometric Imaging Plate Reader (FLIPR, Molecular Devices, Sunnyvale, Calif.) The cDNA encoding the human metabotropic glutamate receptor (hmGluR4), (accession number NM_000841.1, NCBI Nucleotide database browser), was subcloned into an expression vector containing also the hygromycin resistance gene. In parallel, the cDNA encoding a G protein allowing redirection of the activation signal to intracellular calcium flux was subcloned into a different expression vector containing also the puromycin resistance gene. Transfection of both these vectors into HEK293 cells with PolyFect reagent (Qiagen) according to supplier's protocol, and hygromycin and puromycin treatment allowed selection of antibiotic resistant cells which had integrated stably one or more copies of the plasmids. Positive cellular clones expressing hmGluR4 were identified in a functional assay measuring changes in calcium fluxes in response to glutamate or selective known mGluR4 orthosteric agonists and antagonists. HEK-293 cells expressing hmGluR4 were maintained in media containing DMEM, dialyzed Fetal Calf Serum (10%), Glutamax™ (2 mM), Penicillin (100 units/mL), Streptomycin (100 μg/mL), Geneticin (100 μg/mL) and Hygromycin-B (40 μg/mL) and puromycin (1 μg/mL) at 37° C./5% CO2. Human mGluR4 HEK-293 cells were plated out 24 hours prior to FLIPR^384 assay in black-walled, clear-bottomed, poly-L-ornithine-coated 384-well plates at a density of 25,000 cells/well in a glutamine/glutamate free DMEM medium containing foetal bovine serum (10%), penicillin (100 units/mL) and streptomycin (100 μg/mL) at 37 C/5% CO2. On the day of the assay, the medium was aspirated and the cells were loaded with a 3 μM solution of Fluo-4-AM (LuBioScience, Lucerne, Switzerland) in 0.03% pluronic acid. After 1 hour at 37 C/5% CO2, the non incorporated dye was removed by washing cell plate with the assay buffer and the cells were left in the dark at room temperature for six hours before testing. All assays were performed in a pH 7.4 buffered-solution containing 20 mM HEPES, 143 mM NaCl, 6 mM KCl, 1 mM MgSO4, 1 mM CaCl2, 0.125 mM sulfapyrazone, 0.1% glucose. After 10 s of basal fluorescence recording, various concentrations of the compounds of the invention were added to the cells. Changes in fluorescence levels were first monitored for 180 s in order to detect any agonist activity of the compounds. Then the cells were stimulated by an EC25 glutamate concentration for an additional 110 s in order to measure enhancing activities of the compounds of the invention. EC25 glutamate concentration is the concentration giving 25% of the maximal glutamate response. The concentration-response curves of representative compounds of the present invention were generated using the Prism GraphPad software (Graph Pad Inc, San Diego, USA). The curves were fitted to a four-parameter logistic equation: (Y=Bottom+(Top−Bottom)/(1+10^((Log EC50−X)*Hill Slope) allowing the determination of EC50 values. The Table 5 below represents the mean EC50 obtained from at least three independent experiments of selected molecules performed in duplicate.

T1 sequence (Q14833 33-912): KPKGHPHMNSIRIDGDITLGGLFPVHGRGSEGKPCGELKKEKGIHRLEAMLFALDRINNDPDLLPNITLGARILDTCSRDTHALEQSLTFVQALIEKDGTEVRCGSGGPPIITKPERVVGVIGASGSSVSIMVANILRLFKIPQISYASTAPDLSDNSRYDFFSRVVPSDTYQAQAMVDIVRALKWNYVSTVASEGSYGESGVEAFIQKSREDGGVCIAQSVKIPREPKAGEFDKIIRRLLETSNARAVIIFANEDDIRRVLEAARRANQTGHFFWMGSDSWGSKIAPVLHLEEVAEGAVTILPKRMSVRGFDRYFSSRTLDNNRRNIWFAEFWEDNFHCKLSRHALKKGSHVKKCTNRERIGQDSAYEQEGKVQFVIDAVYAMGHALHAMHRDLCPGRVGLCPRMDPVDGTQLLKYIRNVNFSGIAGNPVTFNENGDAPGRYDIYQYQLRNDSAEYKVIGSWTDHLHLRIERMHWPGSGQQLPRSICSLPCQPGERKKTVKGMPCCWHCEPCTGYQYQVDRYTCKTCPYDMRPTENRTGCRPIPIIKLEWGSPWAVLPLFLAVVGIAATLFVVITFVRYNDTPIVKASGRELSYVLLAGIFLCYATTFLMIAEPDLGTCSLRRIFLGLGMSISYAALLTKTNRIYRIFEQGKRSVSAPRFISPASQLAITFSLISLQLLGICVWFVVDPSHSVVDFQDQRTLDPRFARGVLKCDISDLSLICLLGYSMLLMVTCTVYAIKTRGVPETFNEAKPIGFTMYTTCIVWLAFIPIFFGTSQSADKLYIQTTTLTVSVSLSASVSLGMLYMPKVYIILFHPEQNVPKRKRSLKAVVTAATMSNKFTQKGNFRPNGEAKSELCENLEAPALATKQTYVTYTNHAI

Row | Compound | EC50 [1] [nM] | melting point
1 | Cc1n[nH]cc1-c1nsc(Nc2ccccn2)n1 [Compound 1-5, 3-(3-Methyl-1H-pyrazol-4-yl)-N-(pyridin-2-yl)-1,2,4-thiadiazol-5-amine] | 1000 to 10000 | > 280 °C
2 | c1ccc(Nc2nc(-c3cn[nH]c3)ns2)cc1 [Compound 1-6, N-Phenyl-3-(1H-pyrazol-4-yl)-1,2,4-thiadiazol-5-amine] | 1000 to 10000 | 192 °C
3 | Cc1n[nH]cc1-c1csc(Nc2ccccc2)n1 [Compound 1-7, 4-(3-Methyl-1H-pyrazol-4-yl)-N-phenylthiazol-2-amine] | 1000 to 10000 | 200 to 202 °C
4 | CCCc1n[nH]cc1-c1nsc(Nc2ccccc2)n1 [Compound 1-8, N-Phenyl-3-(3-propyl-1H-pyrazol-4-yl)-1,2,4-thiadiazol-5-amine] | 1000 to 10000 | 170 to 172 °C
5 | Cc1n[nH]cc1-c1csc(Nc2ccccn2)n1 [Compound 1-11, 4-(3-Methyl-1H-pyrazol-4-yl)-N-(pyridin-2-yl)thiazol-2-amine] | < 500 | 255 to 257 °C
6 | CC(C)c1n[nH]cc1-c1csc(Nc2ccccn2)n1 [Compound 1-13, 4-(3-Isopropyl-1H-pyrazol-4-yl)-N-(pyridin-2-yl)thiazol-2-amine] | 1000 to 10000 | 195 °C
7 | Cc1sc(Nc2ccccn2)nc1-c1cn[nH]c1 [Compound 1-16, 5-Methyl-4-(1H-pyrazol-4-yl)-N-(pyridin-2-yl)thiazol-2-amine] | < 500 | 291 to 294 °C
8 | Cc1sc(Nc2ncccc2F)nc1-c1cn[nH]c1 [Compound 1-46, N-(3-Fluoropyridin-2-yl)-5-methyl-4-(1H-pyrazol-4-yl)thiazol-2-amine] | < 500 | 300 °C (dec.)
9 | Clc1cccc(Nc2nc(-c3cn[nH]c3)cs2)n1 [Compound 1-49, N-(6-Chloropyridin-2-yl)-4-(1H-pyrazol-4-yl)thiazol-2-amine] | < 500 | 295 °C (dec.)
10 | Cc1cccc(Nc2nc(-c3cn[nH]c3)cs2)n1 [Compound 1-53, N-(6-Methylpyridin-2-yl)-4-(1H-pyrazol-4-yl)thiazol-2-amine] | < 500 | 259 to 260 °C
11 | FC(F)(F)c1sc(Nc2ccccn2)nc1-c1cn[nH]c1 [Compound 1-54, 4-(1H-Pyrazol-4-yl)-N-(pyridin-2-yl)-5-(trifluoromethyl)thiazol-2-amine] | 500 to 1000 | 250 °C (dec.)
12 | CCc1n[nH]cc1-c1csc(Nc2ccccn2)n1 [Compound 1-61, 4-(3-Ethyl-1H-pyrazol-4-yl)-N-(pyridin-2-yl)thiazol-2-amine] | < 500 | 196 to 198 °C

Now from value to compound:

Row | EC50 [1] [nM] | melting point | Compound
13 | 1000 to 10000 | 248 to 250 °C | CCCc1n[nH]cc1-c1nsc(Nc2ccccn2)n1 [Compound 1-9, 3-(3-Propyl-1H-pyrazol-4-yl)-N-(pyridin-2-yl)-1,2,4-thiadiazol-5-amine]
14 | 500 to 1000 | > 260 °C | FC(F)(F)c1n[nH]cc1-c1nsc(Nc2ccccn2)n1 [Compound 1-10, N-(Pyridin-2-yl)-3-(3-(trifluoromethyl)-1H-pyrazol-4-yl)-1,2,4-thiadiazol-5-amine]
15 | 500 to 1000 | 250 °C | FC(F)(F)c1n[nH]cc1-c1csc(Nc2ccccn2)n1 [Compound 1-12, N-(Pyridin-2-yl)-4-(3-(trifluoromethyl)-1H-pyrazol-4-yl)thiazol-2-amine]
16 | < 500 | 306 °C | Cc1cccc(Nc2nc(-c3cn[nH]c3)c(C)s2)n1 [Compound 1-18, 5-Methyl-N-(6-methylpyridin-2-yl)-4-(1H-pyrazol-4-yl)thiazol-2-amine]
17 | < 500 | 261 to 262 °C | c1ccc(Nc2nc(-c3cn[nH]c3)cs2)nc1 [Compound 1-25, N-(4-(1H-pyrazol-4-yl)thiazol-2-yl)pyridin-2-amine]
18 | < 500 | 294 to 296 °C | Cc1sc(Nc2ccccn2)nc1-c1cnn(C(N)=O)c1 [Compound 1-27, 4-(5-Methyl-2-(pyridin-2-ylamino)thiazol-4-yl)-1H-pyrazole-1-carboxamide]
19 | < 500 | 290 °C (dec.) | Cc1sc(Nc2cccc(Cl)n2)nc1-c1cn[nH]c1 [Compound 1-31, N-(6-Chloropyridin-2-yl)-5-methyl-4-(1H-pyrazol-4-yl)thiazol-2-amine]
20 | < 500 | 282 to 285 °C | Clc1sc(Nc2ccccn2)nc1-c1cn[nH]c1 [Compound 1-32, 5-Chloro-4-(1H-pyrazol-4-yl)-N-(pyridin-2-yl)thiazol-2-amine]
21 | < 500 | 290 °C (dec.) | Cc1sc(Nc2cccc(F)n2)nc1-c1cn[nH]c1 [Compound 1-33, N-(6-Fluoropyridin-2-yl)-5-methyl-4-(1H-pyrazol-4-yl)thiazol-2-amine]
22 | < 500 | > 300 °C | Cc1n[nH]cc1-c1nsc(Nc2cccc(F)n2)n1 [Compound 1-43, N-(6-Fluoropyridin-2-yl)-3-(3-methyl-1H-pyrazol-4-yl)-1,2,4-thiadiazol-5-amine]
23 | < 500 | 250 °C (dec.) | N#Cc1sc(Nc2ccccn2)nc1-c1cn[nH]c1 [Compound 1-47, 4-(1H-Pyrazol-4-yl)-2-(pyridin-2-ylamino)thiazol-5-carbonitrile]
24 | < 500 | 281 to 285 °C | Fc1cccc(Nc2nc(-c3cn[nH]c3)cs2)n1 [Compound 1-51, N-(6-Fluoropyridin-2-yl)-4-(1H-pyrazol-4-yl)thiazol-2-amine]
25 | < 500 | 211 to 213 °C | c1ccc(Nc2nc(-c3c[nH]nc3C3CC3)cs2)nc1 [Compound 1-60, 4-(3-Cyclopropyl-1H-pyrazol-4-yl)-N-(pyridin-2-yl)thiazol-2-amine]
